Test results taken from PubChem BioAssay AID328 (DTP/NCI, 2004).
Toxic doses and inconclusive results are not listed. How the source made its calls: active means survival T/C of 150% or more; inactive means T/C below 125% in these data.

System: BDF1 mice, P388 leukemia ip, median survival T/C
Test: NCI In Vivo Anticancer Drug Screen. Data for tumor model P388 Leukemia (intraperitoneal) in B6D2F1 (BDF1) mice
Conditions: endpoint: median survival time, higher = longer survival
Outline: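 Survival ratio, drug arm over vehicle arm, in mice with a transplanted tumour.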

[1] = dose: 12.5 mg/kg/injection, schedule: Q01DX009 (ip), vehicle: saline with Tween-80
[2] = dose: 25.0 mg/kg/injection, schedule: Q01DX009 (ip), vehicle: saline with Tween-80
[3] = dose: 50.0 mg/kg/injection, schedule: Q01DX009 (ip), vehicle: saline with Tween-80
[4] = dose: 100.0 mg/kg/injection, schedule: Q01DX009 (ip), vehicle: saline with Tween-80
[5] = dose: 200.0 mg/kg/injection, schedule: Q01DX009 (ip), vehicle: saline with Tween-80

Measured: T/C

CC1=Cc2ccc(C)cc2C(=O)C1=O
inactive: dose: 3.13 mg/kg/injection, schedule: Q01DX009 (ip), vehicle: Klucel (hydroxypropylcellulose) (HPC) 102 % of control | dose: 6.25 mg/kg/injection, schedule: Q01DX009 (ip), vehicle: Klucel (hydroxypropylcellulose) (HPC) 108 % of control

C=CCOB(OCC=C)OCC=C
inactive: dose: 12.5 mg/kg/injection, schedule: Q04DX003 (ip), vehicle: saline 108 % of control | dose: 25.0 mg/kg/injection, schedule: Q04DX003 (ip), vehicle: saline 100 % of control | dose: 50.0 mg/kg/injection, schedule: Q04DX003 (ip), vehicle: saline 91 % of control

CC1CC2C(CC1O)C2(C)C (stereo not given)
inactive: [1] 100 % of control | [2] 95 % of control | [3] 109 % of control | dose: 100.0 mg/kg/injection, schedule: Q04DX003 (ip), vehicle: saline sonified 111 % of control | dose: 200.0 mg/kg/injection, schedule: Q04DX003 (ip), vehicle: saline sonified 111 % of control | dose: 400.0 mg/kg/injection, schedule: Q04DX003 (ip), vehicle: saline sonified 100 % of control

CCCCCCCCCCCCCCCCN(C)Cc1ccccc1
inactive: dose: 100.0 mg/kg/injection, schedule: Q04DX003 (ip), vehicle: saline 107 % of control | dose: 200.0 mg/kg/injection, schedule: Q04DX003 (ip), vehicle: saline 108 % of control | dose: 400.0 mg/kg/injection, schedule: Q04DX003 (ip), vehicle: saline 116 % of control

O=C(O)CCC1(c2ccccc2)CCCC1
inactive: dose: 25.0 mg/kg/injection, schedule: Q01DX009 (ip), vehicle: water 91 % of control | dose: 50.0 mg/kg/injection, schedule: Q01DX009 (ip), vehicle: water 88 % of control | dose: 100.0 mg/kg/injection, schedule: Q01DX009 (ip), vehicle: water 103 % of control | dose: 200.0 mg/kg/injection, schedule: Q01DX009 (ip), vehicle: water 97 % of control | dose: 300.0 mg/kg/injection, schedule: Q01DX009 (ip), vehicle: water 106 % of control

CSc1ncc2ncn(C3OC(CO)C(O)C3O)c2n1 (stereo not given)
inactive: dose: 100.0 mg/kg/injection, schedule: Q01DX001 (ip), vehicle: Klucel (hydroxypropylcellulose) (HPC) 86 % of control | dose: 100.0 mg/kg/injection, schedule: Q01DX009 (ip), vehicle: Klucel (hydroxypropylcellulose) (HPC) 110 % of control | [4] 86 % of control | dose: 100.0 mg/kg/injection, schedule: Q04DX003 (ip), vehicle: Klucel (hydroxypropylcellulose) (HPC) 95 % of control | dose: 100.0 mg/kg/injection, schedule: Q04DX003 (ip), vehicle: saline with Tween-80 95 % of control | dose: 200.0 mg/kg/injection, schedule: Q01DX001 (ip), vehicle: Klucel (hydroxypropylcellulose) (HPC) 100 % of control | dose: 200.0 mg/kg/injection, schedule: Q01DX009 (ip), vehicle: Klucel (hydroxypropylcellulose) (HPC) 105 % of control | [5] 95 % of control | dose: 200.0 mg/kg/injection, schedule: Q04DX003 (ip), vehicle: Klucel (hydroxypropylcellulose) (HPC) 100 % of control | dose: 200.0 mg/kg/injection, schedule: Q04DX003 (ip), vehicle: saline with Tween-80 95 % of control | dose: 400.0 mg/kg/injection, schedule: Q01DX001 (ip), vehicle: Klucel (hydroxypropylcellulose) (HPC) 109 % of control | dose: 400.0 mg/kg/injection, schedule: Q01DX009 (ip), vehicle: Klucel (hydroxypropylcellulose) (HPC) 105 % of control | dose: 400.0 mg/kg/injection, schedule: Q01DX009 (ip), vehicle: saline with Tween-80 86 % of control | dose: 400.0 mg/kg/injection, schedule: Q04DX003 (ip), vehicle: Klucel (hydroxypropylcellulose) (HPC) 100 % of control | dose: 400.0 mg/kg/injection, schedule: Q04DX003 (ip), vehicle: saline with Tween-80 100 % of control

N/N=C(/c1ccccc1)c1nc(-c2ccccc2)n[nH]c1=O
inactive: [3] 111 % of control | [4] 106 % of control | [5] 112 % of control

Cc1ccc(S)cc1
inactive: [1] 104 % of control | [2] 95 % of control | dose: 25.0 mg/kg/injection, schedule: Q04DX003 (ip), vehicle: saline with Tween-80 100 % of control | [3] 108 % of control | dose: 50.0 mg/kg/injection, schedule: Q04DX003 (ip), vehicle: saline with Tween-80 91 % of control

O=C1NC2C(NC(=O)N2Cl)N1Cl (stereo not given)
inactive: [1] 103 % of control | [2] 100 % of control | [3] 103 % of control
